Measured values taken from ChEMBL document CHEMBL1201862, “PubChem BioAssay data set” (2004).
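Step 1: Grow cells in 96-well plates. Step 2: Expose to compound for 48 hours at 5 concentrations. Step 3: Interpolate endpoints linearly; if unreached, use highest concentration. GI50 marks 50% less growth.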 Calls of active or inactive are those of the source. Cut-off read from the data, not from the text of the source: active = GI50 up to about 1.1 µM and inactive = higher.

Assays:
Assay in all cases: growth of human tumour cells (NCI), 48 h
UACC-62 = system: UACC-62
CAKI-1 = system: CAKI-1
SNB-75 = system: SNB-75
ACHN = system: ACHN
U-251 = system: U-251
SK-MEL-5 = system: SK-MEL-5
K562 = system: K562
MOLT-4 = system: MOLT-4
NCI-H460 = system: NCI-H460
SK-OV-3 = system: SK-OV-3
SK-MEL-2 = system: SK-MEL-2
HT-29 = system: HT-29
SW-620 = system: SW-620
IGROV-1 = system: IGROV-1
OVCAR-5 = system: OVCAR-5
OVCAR-3 = system: OVCAR-3
RPMI-8226 = system: RPMI-8226
SF-268 = system: SF-268

Measured: GI50

O=C(NCCCN1CCN(CCCNC(=O)c2cccc3ccccc23)CC1)c1cccc2ccccc12
inactive: UACC-62 > 100 µM | CAKI-1 51.3 µM | SNB-75 20.9 µM | ACHN > 100 µM | U-251 97.5 µM | SK-MEL-5 36.4 µM | K562 41.4 µM | MOLT-4 > 100 µM | NCI-H460 93.1 µM | SK-OV-3 23 µM | SK-MEL-2 > 100 µM | HT-29 41.2 µM | SW-620 > 100 µM | IGROV-1 78.3 µM | OVCAR-5 > 100 µM | OVCAR-3 79.3 µM | RPMI-8226 > 100 µM

COc1ccc(C(=O)N2c3ccccc3N(C)n3cccc3C2CC(=O)O)cc1 (stereo unspecified)
inactive: UACC-62 > 100 µM | CAKI-1 > 100 µM | SNB-75 > 100 µM | SF-268 > 100 µM | ACHN > 100 µM | SK-MEL-5 > 100 µM | K562 > 100 µM | MOLT-4 > 100 µM | NCI-H460 > 100 µM | SK-OV-3 > 100 µM | SK-MEL-2 > 100 µM | HT-29 > 100 µM | SW-620 > 100 µM | IGROV-1 > 100 µM | OVCAR-5 > 100 µM | OVCAR-3 > 100 µM | RPMI-8226 > 100 µM

Cc1cc2c(c(N)c1C)C(=O)c1ccccc1C2=O
inactive: UACC-62 5.12 µM | CAKI-1 14.5 µM | SNB-75 12.5 µM | SF-268 25.5 µM | ACHN 14.1 µM | U-251 20.3 µM | SK-MEL-5 20.2 µM | K562 > 100 µM | MOLT-4 > 100 µM | NCI-H460 34.5 µM | SK-OV-3 17.5 µM | SK-MEL-2 66.8 µM | HT-29 49.5 µM | SW-620 59.7 µM | IGROV-1 12.6 µM | OVCAR-5 > 100 µM | RPMI-8226 52.1 µM

CCOC(=N)CC(=O)Nc1ccc(Cl)cc1
inactive: UACC-62 > 100 µM | CAKI-1 > 100 µM | SNB-75 > 100 µM | SF-268 > 100 µM | ACHN > 100 µM | U-251 > 100 µM | SK-MEL-5 > 100 µM | K562 > 100 µM | MOLT-4 > 100 µM | NCI-H460 > 100 µM | SK-OV-3 > 100 µM | SK-MEL-2 > 100 µM | HT-29 > 100 µM | SW-620 > 100 µM | IGROV-1 > 100 µM | OVCAR-5 > 100 µM | OVCAR-3 > 100 µM

CC(=O)Nc1ccc(/C=c2\sc3nnc(-c4cccnc4)n3c2=O)cc1
inactive: UACC-62 13.4 µM | CAKI-1 17.9 µM | SNB-75 22.2 µM | SF-268 25.2 µM | ACHN 14 µM | U-251 17.8 µM | SK-MEL-5 17.4 µM | K562 22.4 µM | MOLT-4 19.7 µM | NCI-H460 16.3 µM | SK-OV-3 24 µM | SK-MEL-2 20.9 µM | HT-29 18.5 µM | SW-620 17.8 µM | IGROV-1 16.9 µM | OVCAR-5 27.5 µM | OVCAR-3 17.8 µM

O=C1CC23CC(=O)CC2(C1)c1ccccc1C3=O (stereo unspecified)
inactive: UACC-62 > 100 µM | CAKI-1 > 100 µM | SNB-75 > 100 µM | SF-268 > 100 µM | ACHN > 100 µM | U-251 > 100 µM | K562 > 100 µM | MOLT-4 > 100 µM | NCI-H460 > 100 µM | SK-OV-3 > 100 µM | SK-MEL-2 > 100 µM | HT-29 > 100 µM | SW-620 > 100 µM | IGROV-1 > 100 µM | OVCAR-5 > 100 µM | OVCAR-3 > 100 µM | RPMI-8226 > 100 µM

Cc1cc2nc3c(C#N)c4c(c(Cl)n3c2cc1C)CCC4
inactive: CAKI-1 18.5 µM | SNB-75 > 100 µM | SF-268 23.9 µM | ACHN 24.6 µM | U-251 15.1 µM | SK-MEL-5 21.9 µM | MOLT-4 26 µM | NCI-H460 37.6 µM | SK-OV-3 > 100 µM | SW-620 19.6 µM | OVCAR-5 25.1 µM | OVCAR-3 21.3 µM | RPMI-8226 16 µM

COc1ccc(C2=Nc3ccccc3NC(=O)C2)cc1
inactive: UACC-62 > 100 µM | CAKI-1 > 100 µM | SNB-75 23.8 µM | SF-268 23.4 µM | ACHN 41.2 µM | U-251 28 µM | SK-MEL-5 > 100 µM | K562 > 100 µM | MOLT-4 > 100 µM | NCI-H460 31.1 µM | SK-OV-3 21.5 µM | SK-MEL-2 51.5 µM | HT-29 > 100 µM | SW-620 16.7 µM | IGROV-1 34.6 µM | OVCAR-5 > 100 µM | OVCAR-3 64 µM

COc1ccc(/C=C/C(=O)c2c(-c3ccccc3)nn(C)c(=O)c2N2CCCCC2)cc1
inactive: UACC-62 15.7 µM | CAKI-1 31.2 µM | SF-268 19.7 µM | ACHN 40.1 µM | U-251 14.5 µM | SK-MEL-5 12.8 µM | K562 11.8 µM | MOLT-4 3.94 µM | NCI-H460 17.8 µM | SK-OV-3 21.4 µM | HT-29 14.9 µM | SW-620 24.5 µM | IGROV-1 25 µM | RPMI-8226 5.26 µM
